Experimental data published in publication PMC4061985 (Journal of immunology (Baltimore, Md. : 1950), 2009).
Residues, ends and D or L forms follow the SMILES beside them.

target: HLA-DRA1/B1*0901, soluble recombinant protein (human); assay: not given

Question: For TT 503–515 peptide, unmodified, which Kd is on record?
Answer: 0.073 µM

target: HLA-DR0901 protein (Homo sapiens, UniProt P01903+P01911, A100R/A103E/D57H/D86V/F55Y/F60I/F76Y/I96F/K127E/L162R/M171V/P40D/Q125H/Q99R/R33Q/R42F/S133A/S66N/T210M/V115G/W38K/Y107V/Y59G/Y89S); assay: Peptide binding competition assay, DR0901

Question: CC[C@H](C)[C@H](NC(=O)[C@H](CCCCN)NC(=O)[C@H](CC(=O)O)NC(=O)[C@H](CC(C)C)NC(=O)[C@H](Cc1ccc(O)cc1)NC(=O)[C@H](Cc1ccc(O)cc1)NC(=O)[C@H](CC(N)=O)NC(=O)[C@H](Cc1ccccc1)NC(=O)[C@H](CC(N)=O)NC(=O)[C@@H](N)CC(C)C)C(=O)N[C@H](C(=O)N[C@H](C(=O)N[C@@H](CC(=O)O)C(=O)O)C(C)C)[C@@H](C)CC [LNFNYYLDKIIVD] (H-LNFNYYLDKIIVD-OH) was tested. Which Kd did it give?
Answer: 3.4 µM

Question: CC[C@H](C)[C@H](NC(=O)[C@H](CCCCN)NC(=O)[C@H](CC(=O)O)NC(=O)[C@H](CC(C)C)NC(=O)[C@H](CO)NC(=O)[C@H](Cc1ccc(O)cc1)NC(=O)[C@H](CC(N)=O)NC(=O)[C@H](CC(C)C)NC(=O)[C@H](CC(N)=O)NC(=O)[C@@H](N)CC(C)C)C(=O)N[C@H](C(=O)N[C@H](C(=O)N[C@@H](CC(=O)O)C(=O)O)C(C)C)[C@@H](C)CC [LNLNYSLDKIIVD] (H-LNLNYSLDKIIVD-OH) was tested. Which Kd did it give?
Answer: 0.45 ± 0.08 µM

Question: CC[C@H](C)[C@H](NC(=O)[C@H](CCCCN)NC(=O)[C@H](CC(=O)O)NC(=O)[C@H](CC(C)C)NC(=O)[C@H](CO)NC(=O)[C@H](Cc1ccc(O)cc1)NC(=O)[C@H](CC(N)=O)NC(=O)[C@H](CCSC)NC(=O)[C@H](CC(N)=O)NC(=O)[C@@H](N)CC(C)C)C(=O)N[C@H](C(=O)N[C@H](C(=O)N[C@@H](CC(=O)O)C(=O)O)C(C)C)[C@@H](C)CC [LNMNYSLDKIIVD] (H-LNMNYSLDKIIVD-OH) was tested. Which Kd did it give?
Answer: 0.6 ± 0.15 µM

Question: For CC[C@H](C)[C@H](NC(=O)[C@H](CCCCN)NC(=O)[C@H](CC(=O)O)NC(=O)[C@H](CC(C)C)NC(=O)[C@H](CO)NC(=O)[C@H](Cc1ccc(O)cc1)NC(=O)[C@H](CC(N)=O)NC(=O)[C@@H](NC(=O)[C@H](CC(N)=O)NC(=O)[C@@H](N)CC(C)C)C(C)C)C(=O)N[C@H](C(=O)N[C@H](C(=O)N[C@@H](CC(=O)O)C(=O)O)C(C)C)[C@@H](C)CC [LNVNYSLDKIIVD] (H-LNVNYSLDKIIVD-OH), which Kd is on record?
Answer: 0.44 ± 0.13 µM

Question: Which Kd does the source give for CC[C@H](C)[C@H](NC(=O)[C@H](CCCCN)NC(=O)[C@H](CC(=O)O)NC(=O)[C@H](CC(C)C)NC(=O)[C@H](CO)NC(=O)[C@H](Cc1ccc(O)cc1)NC(=O)[C@H](CC(N)=O)NC(=O)[C@H](Cc1ccc(O)cc1)NC(=O)[C@H](CC(N)=O)NC(=O)[C@@H](N)CC(C)C)C(=O)N[C@H](C(=O)N[C@H](C(=O)N[C@@H](CC(=O)O)C(=O)O)C(C)C)[C@@H](C)CC [LNYNYSLDKIIVD] (H-LNYNYSLDKIIVD-OH) here?
Answer: 0.113 ± 0.04 µM
